From patent publication US9440982B2 (Eolas Therapeutics, Inc., priority 2012, dated 2016)

biological target: T1, OX1 (Homo sapiens, UniProt O43613); test: Orexin receptor cell-based functional assay, [Ca2+]i by FLIPR, CHO-OX1 cells; conditions: CHO-OX1 cells, [Ca2+]i by FLIPR, antagonist dose-range 0.1 nM-10 μM, EC90 of OXA; read-out: OX1
T1 construct: expressed in transfected cells; host or cells: CHO (CHO-OX1, kept under selection antibiotic)
T1 sequence (O43613 1-425): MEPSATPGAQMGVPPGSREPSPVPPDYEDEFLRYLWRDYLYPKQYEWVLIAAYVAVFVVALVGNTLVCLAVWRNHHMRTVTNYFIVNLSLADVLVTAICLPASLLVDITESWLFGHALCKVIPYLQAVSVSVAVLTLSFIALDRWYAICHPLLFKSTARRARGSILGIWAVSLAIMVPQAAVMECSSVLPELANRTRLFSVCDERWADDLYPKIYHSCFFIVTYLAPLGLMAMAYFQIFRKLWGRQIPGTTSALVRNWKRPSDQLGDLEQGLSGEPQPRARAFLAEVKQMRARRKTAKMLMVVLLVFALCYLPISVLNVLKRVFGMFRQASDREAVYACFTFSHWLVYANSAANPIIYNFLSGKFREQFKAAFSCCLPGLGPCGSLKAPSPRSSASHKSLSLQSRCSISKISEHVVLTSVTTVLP
Summary of the method: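 Antagonist mode FLIPR calcium read in CHO-OX1 and CHO-OX2 lines. Test compounds, dosed 0.1 nM-10 μM, preincubated 30 min after 37° C dye loading with 2.5 mM probenecid (calcium4 for 30 min or calcium6 for 2 h).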

Row | SMILES | IC50 [nM]
1 | Cc1ccc(-c2cccnc2)c(C(=O)N2CCC[C@@H](C)[C@H]2CNc2ccc(Cl)cn2)n1 [Example A224] | 13
2 | Cc1ccc(-c2cnn(C)c2)c(C(=O)N2CC3CCCC3C2CNc2ccc(C(F)(F)F)cn2)c1 (stereo not shown) [Example A71, (5-Methyl-2-(1-methyl-1H-pyrazol-4-yl)phenyl)(1-(((5-(trifluoromethyl)pyridin-2-yl)amino)methyl)hexahydrocyclopenta[c]pyrrol-2(1H)-yl)methanone] | 70
3 | C[C@@H]1CCCN(C(=O)c2ccc(F)cc2-n2nccn2)[C@@H]1CNc1ncc(C(F)(F)F)cn1 [Example A251, (4-Fluoro-2-(2H-1,2,3-triazol-2-yl)phenyl)((2S,3R)-3-methyl-2-(((5-(trifluoromethyl)pyrimidin-2-yl)amino)methyl)piperidin-1-yl)methanone] | 58
4 | Cc1ccc(-c2ccnc(C)c2)c(C(=O)N2CCC[C@@H](C)[C@H]2CNc2ccc(F)cn2)c1 [Example A53, ((2S,3R)-2-(((5-Fluoropyridin-2-yl)amino)methyl)-3-methylpiperidin-1-yl)(5-methyl-2-(2-methylpyridin-4-yl)phenyl)methanone] | 670
5 | Cc1ccc(-c2cccnc2)c(C(=O)N2CCC[C@@H](C)[C@H]2CNc2ncc(Cl)cn2)n1 [Example A222, ((2S,3R)-2-(((5-Chloropyrimidin-2-yl)amino)methyl)-3-methylpiperidin-1-yl)(6-methyl-[3,3′-bipyridin]-2-yl)methanone] | 82
6 | Cc1nc(C(=O)N2CCC[C@H](C)[C@H]2CNc2ccc(C(F)(F)F)cn2)c(-c2ccc(F)cc2)s1 (racemic) [Example A65, rac-trans-(5-(4-Fluorophenyl)-2-methylthiazol-4-yl)(3-methyl-2-(((5-(trifluoromethyl)pyridin-2-yl)amino)methyl)piperidin-1-yl)methanone] | 7
7 | Cc1ccc(-c2ccccn2)c(C(=O)N2CCC[C@@H](C)[C@H]2CNc2ccc(C(F)(F)F)cn2)n1 [Example A217, ((2S,3R)-3-Methyl-2-(((5-(trifluoromethyl)pyridin-2-yl)amino)methyl)piperidin-1-yl)(6′-methyl-[2,3′-bipyridin]-2′-yl)methanone] | 150

same assay, conditions: Table 2; CHO-OX1 cells, EC90 of OXA; read-out: IC50 Bioactivity OX1

Row | SMILES | IC50 [nM]
8 | Cc1cnc(NC[C@@H]2[C@H](C)CCCN2C(=O)c2nc(C)sc2-c2ccc(F)cc2)nc1 (racemic) [Example 83, rac-cis-(3-Methyl-2-(((5-methylpyrimidin-2-yl)amino)methyl)piperidin-1-yl)(5-(4-fluorophenyl)-2-methylthiazol-4-yl)methanone] | 30
9 | Cc1cc2c(C(=O)NCC3CCC(F)(F)CN3C(=O)c3nc(C)sc3-c3ccc(F)cc3)cccc2o1 (racemic) [Example 57, rac-N-((5,5-Difluoro-1-(5-(4-fluorophenyl)-2-methylthiazole-4-carbonyl)piperidin-2-yl)methyl)-2-methylbenzofuran-4-carboxamide] | < 100
10 | Cc1ccc(NC[C@@H]2[C@H](C)CCCN2C(=O)c2nc(C)sc2-c2ccc(F)cc2)nc1 (racemic) [Example 86, rac-cis-(3-Methyl-2-(((5-methylpyridin-2-yl)amino)methyl)piperidin-1-yl)(5-(4-fluorophenyl)-2-methylthiazol-4-yl)methanone] | 22
11 | Cc1ccc(-c2ccncc2)c(C(=O)N2CCC[C@@H](C)[C@H]2CNc2ccc(C(F)(F)F)cn2)c1 (racemic) [Example 106, rac-cis-(3-Methyl-2-(((5-(trifluoromethyl)pyridin-2-yl)amino)methyl)piperidin-1-yl)(5-methyl-2-(pyridin-4-yl)phenyl)methanone] | 40
12 | COc1ccnc(NC[C@@H]2[C@H](C)CCCN2C(=O)c2nc(C)sc2-c2ccc(F)cc2)n1 (racemic) [Example 17, rac-cis-(5-(4-Fluorophenyl)-2-methylthiazol-4-yl)(2-(((4-methoxypyrimidin-2-yl)amino)methyl)-3-methylpiperidin-1-yl)methanone] | 52
13 | Cc1ccc(-c2ccnn2C)c(C(=O)N2CCC[C@@H](C)[C@H]2CNc2ccc(C(F)(F)F)cn2)c1 (racemic) [Example 108, rac-cis-(3-Methyl-2-(((5-(trifluoromethyl)pyridin-2-yl)amino)methyl)piperidin-1-yl)(5-methyl-2-(1-methyl-1H-pyrazol-5-yl)phenyl)methanone] | 13
14 | CC(=O)O[C@H]1C[C@@H](CNC(=O)c2cccc3cccnc23)N(C(=O)c2ccccc2-c2ccccc2)C1 [Example 131, (3S,5S)-1-([1,1′-Biphenyl]-2-carbonyl)-5-((quinoline-8-carboxamido)methyl)pyrrolidin-3-yl acetate] | 53
15 | Cc1nc(C(=O)N2C[C@H]3CCC[C@H]3C2CNc2nc3ccccc3o2)c(-c2ccc(F)cc2)s1 (mixture of isomers) [Example 100, (1-((Benzo[d]oxazol-2-ylamino)methyl)hexahydrocyclopenta[c]pyrrol-2(1H)-yl)(5-(4-fluorophenyl)-2-methylthiazol-4-yl)methanone] | 8
16 | C[C@@H]1CCCN(C(=O)c2ccnn2-c2ccccc2)[C@@H]1CNc1ccc(C(F)(F)F)cn1 (racemic) [Example 119, rac-cis-(3-Methyl-2-(((5-(trifluoromethyl)pyridin-2-yl)amino)methyl)piperidin-1-yl)(1-phenyl-1H-pyrazol-5-yl)methanone] | 400
17 | Cc1nc(C(=O)N2CC(NCCO)CCC2CNC(=O)c2cccc3cccnc23)c(-c2cccc(F)c2)s1 (racemic) [Example 54, N-((1-(5-(3-Fluorophenyl)-2-methylthiazole-4-carbonyl)-5-(2-hydroxyethylamino)piperidin-2-yl)methyl)quinoline-8-carboxamide] | 180
18 | Cc1nc(C(=O)N2CCC[C@@H](C)[C@H]2CNc2cccc3cccnc23)c(-c2ccc(F)cc2)s1 (racemic) [Example 74, rac-cis-(3-Methyl-2-((quinolin-8-ylamino)methyl)piperidin-1-yl)(5-(4-fluorophenyl)-2-methylthiazol-4-yl)methanone] | 58
19 | COc1cnc(NC[C@@H]2[C@H](C)CCCN2C(=O)c2nc(C)sc2-c2ccc(F)cc2)nc1 (racemic) [Example 88, rac-cis-(2-(((5-Methoxypyrimidin-2-yl)amino)methyl)-3-methylpiperidin-1-yl) (5-(4-fluorophenyl)-2-methylthiazol-4-yl)methanone] | 42
20 | Cc1nc(C(=O)N2CCC[C@@H](C)[C@H]2CNc2cncc(Cl)n2)c(-c2ccc(F)cc2)s1 (racemic) [Example 123, rac-cis-(2-(((6-Chloropyrazin-2-yl)amino)methyl)-3-methylpiperidin-1-yl)(5-(4-fluorophenyl)-2-methylthiazol-4-yl)methanone] | 3600
21 | Cc1nc(C(=O)N2CCC[C@@H](C(F)(F)F)[C@H]2CNc2ccc(C(F)(F)F)cn2)c(-c2ccccc2)s1 (racemic) [Example 14, rac-cis-(2-Methyl-5-phenylthiazol-4-yl)(3-(trifluoromethyl)-2-(((5-(trifluoromethyl)pyridin-2-yl)amino)methyl)piperidin-1-yl)methanone] | 9
22 | Cc1nc(C(=O)N2CCC[C@@H](C)[C@H]2CNc2cc(C(F)(F)F)ccn2)c(-c2ccc(F)cc2)s1 (racemic) [Example 21, rac-cis-(5-(4-Fluorophenyl)-2-methylthiazol-4-yl)(3-methyl-2-(((4-(trifluoromethyl)pyridin-2-yl)amino)methyl)piperidin-1-yl)methanone] | 24
23 | Cc1ccc(-c2ccc(C)nc2)c(C(=O)N2CCC[C@@H](C)[C@H]2CNc2ccc(C(F)(F)F)cn2)c1 (racemic) [Example 105, rac-cis-(3-Methyl-2-(((5-(trifluoromethyl)pyridin-2-yl)amino)methyl)piperidin-1-yl)(5-methyl-2-(6-methylpyridin-3-yl)phenyl)methanone] | 109

biological target: T2, CYP3A4 (Homo sapiens, UniProt P08684); test: Cytochrome P450 inhibition assay (midazolam hydroxylation); format: in vitro ADME; conditions: human, human liver microsomes, probe midazolam (hydroxylation to 1′-hydroxymidazolam), 10 μM test compound, midazolam at approximately its Km
T2 construct: pre-incubated with human liver microsomes and NADPH; from tissue; host or cells: human liver microsomes
Procedure: Compounds were tested for the potential to induce drug-drug interactions by inhibition of the cytochrome P450 3A4 isoform. The assay evaluated the metabolism of a specific marker substrate (CYP3A4, midazolam hydroxylation to 1′-hydroxymidazolam) in the presence or absence of 10 μM test compound. The concentration of the marker substrate was approximately its Km (Dixit et al., Biopharm. Drug Dispos. 2007, 28(5), 257-262). A specific inhibitor for the isoform was included in each run to validate the system. An appropriate positive control inhibitor was used. Mechanism-based inhibition was investigated where warranted using a classical method. To evaluate time-dependent inhibition, parallel samples may have been included where […] was pre-incubated with human liver microsomes and NADPH for 30 min prior to the addition of the P450 substrate. The percent inhibition of the pre-incubated and non-pre-incubated samples were compared as a preliminary evaluation of time-dependent inhibition.

T2 sequence (P08684 whole entry): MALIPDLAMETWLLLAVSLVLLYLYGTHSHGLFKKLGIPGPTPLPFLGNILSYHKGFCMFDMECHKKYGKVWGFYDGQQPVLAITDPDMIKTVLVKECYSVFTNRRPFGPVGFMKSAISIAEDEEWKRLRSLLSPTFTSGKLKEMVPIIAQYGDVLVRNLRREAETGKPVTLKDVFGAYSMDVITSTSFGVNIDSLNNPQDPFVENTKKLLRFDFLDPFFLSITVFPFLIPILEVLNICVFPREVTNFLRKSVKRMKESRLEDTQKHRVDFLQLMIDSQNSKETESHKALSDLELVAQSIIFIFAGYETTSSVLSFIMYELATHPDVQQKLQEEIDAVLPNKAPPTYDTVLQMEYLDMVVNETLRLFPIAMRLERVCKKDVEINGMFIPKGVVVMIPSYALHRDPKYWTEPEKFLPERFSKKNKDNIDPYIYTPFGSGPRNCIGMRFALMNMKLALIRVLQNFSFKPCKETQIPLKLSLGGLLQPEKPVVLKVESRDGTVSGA

Row | SMILES | inhibition at 10 µM [%]
24 | Cc1ccc(-n2nccn2)c(C(=O)N2CCC(F)(F)C[C@H]2CNc2ccc(Cl)cn2)c1 [Example A210, (S)-(2-(((5-Chloropyridin-2-yl)amino)methyl)-4,4-difluoropiperidin-1-yl)(5-methyl-2-(2H-1,2,3-triazol-2-yl)phenyl)methanone] | 76
25 | COc1ncc(-c2ccc(C)cc2C(=O)N2CCC[C@@H](C)[C@H]2CNc2ccc(C(F)(F)F)cn2)cn1 [Example A4, (2-(2-Methoxypyrimidin-5-yl)-5-methylphenyl)((2S,3R)-3-methyl-2-(((5-(trifluoromethyl)pyridin-2-yl)amino)methyl)piperidin-1-yl)methanone] | 96
